According to ChEMBL document CHEMBL4699405, “TPP-based mitocans: a potent strategy for anticancer drug design” (RSC Med Chem, 2020):

Experiments:
[1] = system: SK-N-SH; experiment: Cytotoxicity against human SK-N-SH cells assessed as reduction in cell viability incubated for 24 hrs by SRB assay; assay type: functional, cell-based
[2] = system: MCF7; experiment: Cytotoxicity against human MCF7 cells assessed as reduction in cell viability incubated for 24 hrs by SRB assay; assay type: functional, cell-based; conditions: MCF7, 24 h
[3] = system: MDA-MB-231; experiment: Cytotoxicity against human MDA-MB-231 cells assessed as reduction in cell viability incubated for 24 hrs by SRB assay; assay type: functional, cell-based; conditions: MDA-MB-231, 24 h
[4] = system: HeLa; experiment: Cytotoxicity against human HeLa cells assessed as reduction in cell viability incubated for 24 hrs by SRB assay; assay type: functional, cell-based
[5] = system: DU-145; experiment: Cytotoxicity against human DU-145 cells assessed as reduction in cell viability incubated for 24 hrs by SRB assay; assay type: functional, cell-based; conditions: DU-145, 24 h
[6] = system: HCT-116; experiment: Cytotoxicity against human HCT-116 cells assessed as reduction in cell viability at 10 umol/L incubated for 24 hrs by LDH assay; assay type: functional; conditions: HCT-116, 24 h, dose 10 µmol/L
[7] = Antitumor activity against human UCI 101 ovarian cells xenografted in BALB/c mouse assessed as survival of mouse at 8 mg/kg, ip qod followed by six doses at 5 mg/kg qod measured upto 180 days (reference value: 0 (50 days)); assay type: functional; conditions: UCI101, ip, 4320 h, time 180 day

SMILES: COc1cc(/C=C/C(=O)CC(=O)/C=C/c2ccc(OCCC[P+](c3ccccc3)(c3ccccc3)c3ccccc3)c(OC)c2)ccc1O
- IC50 [1]: 8.19 µM
- IC50 [2]: 5.31 µM
- IC50 [3]: 8.33 µM
- IC50 [4]: 7.69 µM
- IC50 [5]: 8.62 µM

SMILES: C[n+]1ccc(-c2cc[n+](CCCCCCCCCC[P+](c3ccccc3)(c3ccccc3)c3ccccc3)cc2)cc1
- inhibition at 10 µM [6]: > 50%

SMILES: CN(C)c1ccc([P+](CCCCl)(c2ccc(N(C)C)cc2)c2ccc(N(C)C)cc2)cc1
- survival at 8 mg/kg [7]: 37.5%

SMILES: COc1cc(/C=C/C(=O)CC(=O)/C=C/c2ccc(OCCC[P+](c3ccccc3)(c3ccccc3)c3ccccc3)c(OC)c2)ccc1OCCC[P+](c1ccccc1)(c1ccccc1)c1ccccc1
- IC50 [1]: 5.12 µM
- IC50 [2]: 2.31 µM
- IC50 [3]: 5.1 µM
- IC50 [4]: 4.46 µM
- IC50 [5]: 5.1 µM

SMILES: CN(C)c1ccc([P+](CCCI)(c2ccc(N(C)C)cc2)c2ccc(N(C)C)cc2)cc1
- survival at 8 mg/kg [7]: 12.5%
